Results on 32 molecules are retold here after patent publication US20110065796A1 (SHIRE LLC, priority 2009, published 2011).

A short description of series [1]: Prodrug stability in simulated gastric fluid. The conditions noted are these: 37° C., pH 1.1, HPLC.
Protocol: (§1) The remaining concentrations of the prodrugs were then assayed by H PLC.
A short description of series [2]: Prodrug stability in simulated intestinal fluid. The conditions noted are these: 37° C., pH 6.8, HPLC.
Protocol: as §1

For the molecule `CC(C)[C@@H](N)C(=O)NCCOC(=O)NC(=N)NC(=O)Cc1c(Cl)cccc1Cl` [Compound 27, Guanfacine (Ethanolamine-(R)-Valine) Carbamate], in series [1], the “% prodrug remaining following incubation for 1 h in simulated gastric fluid pH 1.1” value was 78%. The “% prodrug remaining following incubation for 2 h in simulated intestinal fluid pH 6.8” value in series [2] is on record as 111%.
For `N=C(NC(=O)Cc1c(Cl)cccc1Cl)NC(=O)OC[C@H](NC(=O)CCN)C(=O)O` [Compound 64, Guanfacine ((S)-Serine-β-Alanine) Carbamate] the same measures were 88% and 93%.
As for `CNCC(=O)NCCOC(=O)NC(=N)NC(=O)Cc1c(Cl)cccc1Cl` [Compound 71, Guanfacine (Ethanolamine-Sarcosine) Carbamate], the “% prodrug remaining following incubation for 1 h in simulated gastric fluid pH 1.1” value in series [1] is 91%. Also, the “% prodrug remaining following incubation for 2 h in simulated intestinal fluid pH 6.8” value in series [2] is given as 89%.
`O=C1CCN=C(NC(=O)Cc2c(Cl)cccc2Cl)N1` [Compound 34, Guanfacine-β-Alanine Cyclic Adduct]: in series [1], the “% prodrug remaining following incubation for 1 h in simulated gastric fluid pH 1.1” value is reported as 51%. Besides, the “% prodrug remaining following incubation for 2 h in simulated intestinal fluid pH 6.8” value in series [2] was 91%.
Consider `N=C(NC(=O)Cc1c(Cl)cccc1Cl)NC(=O)Nc1ccc(C(=O)O)cc1` [Compound 53, Guanfacine PABA Urea], for which the “% prodrug remaining following incubation for 1 h in simulated gastric fluid pH 1.1” value in series [1] is reported as 101%. Moreover, the “% prodrug remaining following incubation for 2 h in simulated intestinal fluid pH 6.8” value in series [2] was 100%.
`N=C(NC(=O)CCCNC(=O)[C@@H]1CCC(=O)N1)NC(=O)Cc1c(Cl)cccc1Cl` [Compound 23, Guanfacine (GABA-(S)-Pyroglutamic acid) Amide]: the “% prodrug remaining following incubation for 1 h in simulated gastric fluid pH 1.1” value in series [1] is on record as 98%. In addition, in series [2], the “% prodrug remaining following incubation for 2 h in simulated intestinal fluid pH 6.8” value was 78%.
The matching figures for `CC(C)[C@@H](N)C(=O)N[C@H](C(=O)O)[C@@H](C)OC(=O)NC(=N)NC(=O)Cc1c(Cl)cccc1Cl` [Compound 21, Guanfacine ((S)-Threonine-(R)-Valine) Carbamate]: 83% and 103%.
The matching figures for `N=C(NC(=O)Cc1c(Cl)cccc1Cl)NC(=O)OC[C@H](NC(=O)[C@@H]1CCC(=O)N1)C(=O)O` [Compound 16, Guanfacine ((S)-Serine-(S)-Pyroglutamic acid) Carbamate]: 78% and 95%.
Regarding `O=C(O)CC1N=C(NC(=O)Cc2c(Cl)cccc2Cl)NC1=O` (stereo not shown) [Compound 4, Guanfacine Fumaryl Cyclic Adduct], in series [1], the “% prodrug remaining following incubation for 1 h in simulated gastric fluid pH 1.1” value is 97%. For the same molecule, the “% prodrug remaining following incubation for 2 h in simulated intestinal fluid pH 6.8” value in series [2] is 84%.
For `N=C(NC(=O)Cc1c(Cl)cccc1Cl)NC(=O)OCCNC(=O)CN` [Compound 49, Guanfacine (Ethanolamine-Glycine) Carbamate] the same measures were 87% and 101%.
On to `C[C@@H]1N=C(NC(=O)Cc2c(Cl)cccc2Cl)NC1=O` [Compound 39, Guanfacine-(S)-AlanineCyclic Adduct], for which the “% prodrug remaining following incubation for 1 h in simulated gastric fluid pH 1.1” value in series [1] is on record as 89%. Moreover, the “% prodrug remaining following incubation for 2 h in simulated intestinal fluid pH 6.8” value in series [2] was 104%.
For `CC(C)[C@H](N)C(=O)N[C@H](C(=O)O)[C@@H](C)OC(=O)NC(=N)NC(=O)Cc1c(Cl)cccc1Cl` [Compound 20, Guanfacine ((S)-Threonine-(S)-Valine) Carbamate] the same measures were 79% and 100%.
The matching figures for `N=C(NC(=O)CC[C@H](NC(=O)[C@@H]1CCC(=O)N1)C(=O)O)NC(=O)Cc1c(Cl)cccc1Cl` [Compound 6, Guanfacine ((S)-γ-Glutamate-(S)-Pyroglutamic acid) Amide]: 81% and 98%.
For the molecule `CC(C)(CO)[C@@H](O)C(=O)NCCCOC(=O)NC(=N)NC(=O)Cc1c(Cl)cccc1Cl` [Compound 69, Guanfacine Panthenol Carbamate], the “% prodrug remaining following incubation for 1 h in simulated gastric fluid pH 1.1” value in series [1] is given as 85%. For the same molecule, the “% prodrug remaining following incubation for 2 h in simulated intestinal fluid pH 6.8” value in series [2] is on record as 96%.
For `CC(C)[C@H](NC(=O)CC(C)(C)CC(=O)NC(=N)NC(=O)Cc1c(Cl)cccc1Cl)C(=O)O` [Compound 33, Guanfacine (3,3-dimethylglutaryl-(S)-Valine) Amide] the same measures were 79% and 99%.
For `NCCCC[C@@H]1N=C(NC(=O)Cc2c(Cl)cccc2Cl)NC1=O` [Compound 36, Guanfacine-(S)-Lysine Cyclic Adduct] the same measures were 83% and 101%.
Regarding `CC(C)[C@@H](NC(=O)c1ccc(N)cc1)C(=O)NC(=N)NC(=O)Cc1c(Cl)cccc1Cl` [Compound 55, Guanfacine ((R)-Valine-PABA) Amide], in series [1], the “% prodrug remaining following incubation for 1 h in simulated gastric fluid pH 1.1” value is given as 65%. Besides, the “% prodrug remaining following incubation for 2 h in simulated intestinal fluid pH 6.8” value in series [2] is listed as 91%.
Turning to `CC(C)[C@H](NC(=O)COC(=O)NC(=N)NC(=O)Cc1c(Cl)cccc1Cl)C(=O)O` [Compound 29, Guanfacine (Glycolyl-(S)-Valine) Carbamate], the “% prodrug remaining following incubation for 1 h in simulated gastric fluid pH 1.1” value in series [1] was 80%. Also, in series [2], the “% prodrug remaining following incubation for 2 h in simulated intestinal fluid pH 6.8” value is given as 99%.
The matching figures for `CC(C)[C@@H]1N=C(NC(=O)Cc2c(Cl)cccc2Cl)NC1=O` [Compound 35, Guanfacine-(S)-Valine Cyclic Adduct]: 83% and 108%.
For `N=C(NC(=O)CC[C@H](NC(=O)[C@H](N)CCCCN)C(=O)O)NC(=O)Cc1c(Cl)cccc1Cl` [Compound 43, Guanfacine ((S)-γ-Glutamate-(R)-Lysine) Amide] the same measures were 62% and 85%.
For `CCC(C)[C@@H](N)C(=O)NCCCC(=O)NC(=N)NC(=O)Cc1c(Cl)cccc1Cl` (stereo partly drawn) [Compound 50, Guanfacine (GABA-(R)-Isoleucine) Amide] the same measures were 85% and 81%.
On to `N=C(NC(=O)CC[C@H](NC(=O)[C@H](N)Cc1ccc(O)cc1)C(=O)O)NC(=O)Cc1c(Cl)cccc1Cl` [Compound 45, Guanfacine ((S)-γ-Glutamate-(R)-Tyrosine) Amide], for which the “% prodrug remaining following incubation for 1 h in simulated gastric fluid pH 1.1” value in series [1] is 74%. For the same molecule, in series [2], the “% prodrug remaining following incubation for 2 h in simulated intestinal fluid pH 6.8” value is listed as 91%.
The matching figures for `N=C(NC(=O)Cc1c(Cl)cccc1Cl)NC(=O)OCC[C@H](NC(=O)CCN)C(=O)O` [Compound 67, Guanfacine ((S)- Homoserine-β-Alanine) Carbamate]: 99% and 97%.
For `C[C@H]1N=C(NC(=O)Cc2c(Cl)cccc2Cl)NC1=O` [Compound 51, Guanfacine-(R)-Alanine Cyclic Adduct] the same measures were 80% and 103%.
The matching figures for `N=C(NC(=O)Cc1c(Cl)cccc1Cl)NC(=O)OCC[C@H](N)C(=O)O` [Compound 65, Guafacine (S)-Homoserine Carbamate]: 90% and 99%.
In the case of `CC[C@H](C)[C@H](N)C(=O)NCCOC(=O)NC(=N)NC(=O)Cc1c(Cl)cccc1Cl` [Compound 59, Guanfacine (Ethanolamine-(S)-Isoleucine) Carbamate], the “% prodrug remaining following incubation for 1 h in simulated gastric fluid pH 1.1” value in series [1] is given as 92%. In addition, the “% prodrug remaining following incubation for 2 h in simulated intestinal fluid pH 6.8” value in series [2] is given as 100%.
For `C[C@@H](OC(=O)NC(=N)NC(=O)Cc1c(Cl)cccc1Cl)[C@H](NC(=O)[C@@H]1CCC(=O)N1)C(=O)O` [Compound 19, Guanfacine ((S)-Threonine-(S)-Pyroglutamic acid) Carbamate] the same measures were 92% and 102%.
The matching figures for `N=C(NC(=O)Cc1c(Cl)cccc1Cl)NC(=O)Oc1ccc(C[C@H](N)C(=O)O)cc1` [Compound 13, Guanfacine (S)-Tyrosine Carbamate]: 74% and 81%.
On to `CC(C)[C@@H](N)C(=O)N[C@@H](C(=O)NC(=N)NC(=O)Cc1c(Cl)cccc1Cl)C(C)C` [Compound 54, Guanfacine ((R)-Valine-(R)-Valine) Amide], for which the “% prodrug remaining following incubation for 1 h in simulated gastric fluid pH 1.1” value in series [1] is 73%. In series [2], the “% prodrug remaining following incubation for 2 h in simulated intestinal fluid pH 6.8” value is recorded as 66%.
Consider `CC(C)(COC(=O)NC(=N)NC(=O)Cc1c(Cl)cccc1Cl)[C@@H](O)C(=O)NCCC(=O)O` [Compound 68, Guanfacine Pantothenic acid Carbamate], for which the “% prodrug remaining following incubation for 1 h in simulated gastric fluid pH 1.1” value in series [1] is 86%. Also, the “% prodrug remaining following incubation for 2 h in simulated intestinal fluid pH 6.8” value in series [2] is 75%.
Consider `N=C(NC(=O)CC[C@H](NC(=O)[C@H](N)CO)C(=O)O)NC(=O)Cc1c(Cl)cccc1Cl` [Compound 47, Guanfacine ((S)-γ-Glutamate-(R)-Serine) Amide], for which the “% prodrug remaining following incubation for 1 h in simulated gastric fluid pH 1.1” value in series [1] is on record as 72%. Also, the “% prodrug remaining following incubation for 2 h in simulated intestinal fluid pH 6.8” value in series [2] was 89%.
In the case of `N=C(NC(=O)CC[C@H](NC(=O)c1ccc(N)cc1)C(=O)O)NC(=O)Cc1c(Cl)cccc1Cl` [Compound 70, Guanfacine ((S)-γ-Glutamate-PABA) Amide], in series [1], the “% prodrug remaining following incubation for 1 h in simulated gastric fluid pH 1.1” value was 64%. In series [2], the “% prodrug remaining following incubation for 2 h in simulated intestinal fluid pH 6.8” value is given as 93%.
